In brackets after ≈: the same amount, converted by molar mass.

The test system of series [1] is tissue autofluorescence in FFPE mouse multi-tissue arrays. As to the kind of experiment: Quinone compounds tested for tissue autofluorescence quenching, FFPE mouse multi-tissue arrays. The conditions noted are these: incubated for 30 min; compared with 4×SSC untreated control slide. The protocol: Multiple quinone compounds were tested for tissue autofluorescence quenching effects on FFPE mouse multi-tissue arrays. After bake, deparaffinization, and pretreatment to permeabilize the tissue, 4×SSC or quinone derivative was applied to the tissue and incubated for 30 min. After washing DAPI was applied to stain the nucleus. Slides were then mounted with prolong gold and scanned using the same microscopic settings. A reduction in autofluorescence was determined by comparing the fluorescence on the quinone derivative treated slide with a 4×SSC untreated control slide.

The test system of series [2] is FFPE mouse multi tissue array. The experiment in a line: Quinone treatment condition optimization, RNAscope HiPlex, FFPE mouse multi tissue array.
Series [3] relates to FFPE mouse brain. The experiment in a line: Antibody compatibility with pBQ treatment (immunofluorescence), FFPE mouse brain. The conditions noted are these: NeuN, Chicken anti NeuN 1:500, Goat anti-chicken AF555 1:500. Here is the method: (§1) CD20 was detected in human head and neck FFPE tissue. After bake, deparaffmization, and pretreatment to permeabilize the tissue, 4×SSC (untreated control) or p-benzoquinone (pBQ) (40 mM in 4×SSC) was applied onto the tissue and incubated for 30 min. After washing, mouse anti-CD20 primary antibody (Leica Ready to Use) was applied for 1 hour at room temperature (RT). Signal was amplified by rabbit anti-mouse post primary antibody (Leica Ready to Use) and goat anti-rabbit […] secondary antibody (Leica Ready to Use) conjugated to HRP. Signal was detected using Opal 520 (Akoya Bio) diluted 1:500 in TSA buffer. The images were taken with the same exposure settings. The brightness of the pBQ treated slide was increased by two-fold to achieve optimal display.
(§2) Additional antibodies were tested for compatibility with p-benzoquinone treatment, using the same general experimental method as described above.

For series [4], the system named is autofluorescence in FFPE Human Brain Tissues. The experiment in a line: Quenching of endogenous and lipofuscin autofluorescence, unstained FFPE human brain tissues. Conditions: 100 mM in 4×SSC. The protocol:
The present methods are effective at partially reducing autofluorescence caused by lipofuscin pigment granules that are most commonly found in brain tissues. FFPE Human Brain Tissues were treated with or without pBQ and imaged without staining to reveal tissue endogenous autofluorescence.

Series [5] has as its system autofluorescence in non-human primate fixed frozen liver tissue. The experiment in a line: RNAscope HiPlex assay with p-benzoquinone treatment, non-human primate fixed frozen liver tissue. The conditions noted are these: 100 mM in 4×SSC, vs 4×SSC alone.
Series [6] relates to FFPE human tumor microarray. The experiment in a line: Quinone treatment condition optimization, RNAscope HiPlex, FFPE human tumor microarray. Also noted: key to the marks not given beside the values. The conditions noted are these: 100 mM, 30 min, Polr2a, PPIB, UBC, Hprt1. The protocol:
Major factors tested for p-benzoquinone were chemical concentration, incubation time, and fluorescent dyes.

Series [7] is described as follows: Maximum solubility in 4×SSC. Conditions: 4×SSC buffer, aqueous buffer. The class given is physicochemical.
The subject of series [8] is hTMAc. As to the kind of experiment: Antibody compatibility with pBQ treatment (immunofluorescence), hTMAc. Conditions: CD3, Leica mouse anti-CD3 1:200, Goat anti-rabbit AF488 1:500. The protocol:
as §1, §2

Series [9] concerns mouse fresh frozen tissue. As to the kind of experiment: RNAscope HiPlex assay with p-benzoquinone treatment, mouse fresh frozen tissue. Conditions: 100 mM in 4×SSC. Here is the method: (§3) RNAscope® HiPlex assays were conducted to detect four positive control genes in mouse FFPE kidney tissue. ZZ probes for 12 different targets were hybridized together to a mouse multi-tissue array prepared as formalin-fixed paraffin embedded sections, and the hybridization signals were amplified together by successive rounds of hybridization with the preamplifier and amplifier sequences. Autofluorescence quenching was performed by application of p-benzoquinone (100 mM in 4× Saline-Sodium Citrate (SSC)) onto the slides for 30 minutes at room temperature, followed by detection of four (Ppib, Ubc, Polr2a and Hprt1) of the 12 target genes using fluorescent label probes corresponding to the signal amplification systems assigned to these four target probes and the fluorophores Alexa 488, DyLight 550, DyLight 650 and Alexa 750 respectively (bottom panels). On a separate slide, 4×SSC buffer alone was used as the untreated control. Nuclei were stained with DAPI.
Yet another similar experiment was conducted using mouse fresh frozen tissue, with detection of four of the twelve targets (Polr2a, Ppib, Ubc, and Hprt1).

The subject of series [10] is autofluorescence in mouse FFPE kidney tissue. As to the kind of experiment: RNAscope HiPlex assay with p-benzoquinone autofluorescence quenching, mouse FFPE kidney tissue. The conditions noted are these: 100 mM in 4× SSC, 30 minutes at room temperature, vs 4×SSC control. The protocol: as §3
The subject of series [11] is autofluorescence in human FFPE lung cancer tissue. As to the kind of experiment: RNAscope HiPlex assay with p-benzoquinone treatment, human FFPE lung cancer tissue. The conditions noted are these: 100 mM in 4×SSC, vs 4×SSC alone. The protocol: as §3
Series [12] has as its system mouse FFPE liver tissue. The experiment in a line: Dye compatibility with p-benzoquinone treatment, RNAscope, mouse FFPE liver tissue. The conditions noted are these: p-benzoquinone applied after Amp 3. An excerpt:
To evaluate the compatibility of certain dyes, targets were detected in mouse FFPE liver tissue, using the p-benzoquinone treatment step. […] Experimentally, these targets were detected using RNAscope® double Z probes and signals were amplified using an RNAscope® amplification system (Amp 1, 2, 3), with p-benzoquinone applied after Amp 3.

Series [13] has as its system human head and neck FFPE tissue. The experiment in a line: CD20 immunofluorescence after p-benzoquinone treatment, human head and neck FFPE tissue. The conditions noted are these: 40 mM in 4×SSC, 30 min, CD20, Opal 520.
Description: CD20 was detected in human head and neck FFPE tissue. After bake, deparaffmization, and pretreatment to permeabilize the tissue, 4×SSC (untreated control) or p-benzoquinone (pBQ) (40 mM in 4×SSC) was applied onto the tissue and incubated for 30 min. After washing, mouse anti-CD20 primary antibody (Leica Ready to Use) was applied for 1 hour at room temperature (RT). Signal was amplified by rabbit anti-mouse post primary antibody (Leica Ready to Use) and goat anti-rabbit Alexa 488 secondary antibody (Leica Ready to Use) conjugated to HRP. Signal was detected using Opal 520 (Akoya Bio) diluted 1:500 in TSA buffer. The images were taken with the same exposure settings.

For `O=C1C=C(Cl)C(=O)C=C1Cl` [2,5-Dichloro-1,4-benzoquinone], the Autofluorescence quenching effect result in [1] is “Yes”.

`COC1=CC(=O)C(OC)=CC1=O` [2,5-Dimethoxy-(1,4)-benzoquinone]: the Autofluorescence quenching effect entry in [1] was “No”.

As for `O=C1C=C(Cl)C(=O)C(Cl)=C1` [2,6-Dichloro-1,4-benzoquinone], in series [1], the Autofluorescence quenching effect entry is reported as “Yes”.

Regarding `COC1=CC(=O)C=C(OC)C1=O` [2,6-Dimethoxy-1,4-benzoquinone], the Autofluorescence quenching effect result in series [1] is reported as “No”.

On to `CC1=CC(=O)C=C(C)C1=O` [2,6-Dimethylbenzoquinone], for which, in series [1], the Autofluorescence quenching effect entry was “No”.

Take `O=C1C=CC(=O)C(Cl)=C1` [2-Chloro-1,4-benzoquinone]: the Autofluorescence quenching effect result in series [1] is recorded as “Yes”.

`COC1=CC(=O)C=CC1=O` [2-methoxybenzo-1,4-quinone]: in [1], the Autofluorescence quenching effect entry is reported as “Yes”.

Consider `Oc1ccc(O)cc1` [Hydroquinone], for which the Autofluorescence quenching effect entry in series [1] was “Yes”. Moreover, the Signal/noise ratio result is given as “−−+” in [2] (20 mM, 4 d, with light exposure); “−−+” in [2] (20 mM, 6 d, with light exposure); “−−+” in series [2] (200 mM, 2 d, with light exposure); “−++” in [2] (200 mM, 4 d, with light exposure); “−++” in [2] (200 mM, 5 d, with light exposure); “−++” in [2] (200 mM, 6 d, with light exposure). In addition, the Signal/noise ratio entry in [2] (Buffer 2x SSC (20 mM, 4 d, with light exposure)) is reported as “−−+”; in [2] (Buffer 4x SSC (20 mM, 4 d, with light exposure)), “−−+”; in [2] (Buffer Decal (20 mM, 4 d, with light exposure)), “−−+”; in [2] (Buffer RNAase later/inhibitor (20 mM, 4 d, with light exposure)) it was “−−+”; in [2] (Light exposure Yes (200 mM, 2 d)), “−−+”; in series [2] (Workflow position After Amp1 (20 mM, 2 d, with light exposure)), “−−+”. For the same molecule, the Signal/noise ratio result in [2] (Workflow position After Amp2 (20 mM, 2 d, with light exposure)) was “−−+”; in series [2] (Workflow position After Amp3 (20 mM, 2 d, with light exposure)), “−++”.

Turning to `CC1=CC(=O)C=CC1=O` [Methyl-p-benzoquinone], in [1], the Autofluorescence quenching effect result is “No”.

As to `O.O=C1C(O)=C(O)C(=O)C(O)=C1O` [Tetrahydroxy-1,4-quinone hydrate], the Autofluorescence quenching effect entry in [1] is recorded as “No”.

In the case of `O=C1C=CC(=O)C=C1` [p-benzoquinone], the Autofluorescence quenching effect entry in series [1] is reported as “Yes”. Moreover, the “IF Signal compared to control” value in series [3] and in [8] was “Weaker” each time. The “effect on lipofuscin autofluorescence (dot-like and clusters of fluorescence)” value in series [4] is “partially quenches lipofuscin autofluorescence”; in [4] (listed as p-Benzoquinone) it was “reduced but not completely eliminated”. The “effect on fixation induced haze background” value in series [4] (vs no pBQ control) was “greatly reduced”. Also, the “effect on tissue autofluorescence” value in series [5] was “reduced autofluorescence”; in [10], “effectively reduced autofluorescence”; in series [11], “reduced autofluorescence”. The Signal/noise ratio result in series [2] (2 mM, overnight, Polr2a, PPIB, UBC, Hprt1) is “+++”; in series [2] (20 mM, 30 min) it was “−−+”; in [2] (100 mM, 30 min) it was “+++”; in series [2] (200 mM, 30 min), “+++”; in [2] (Fluorescent dyes: Alexa dyes), “+++”; in series [2] (Fluorescent dyes: Dylight dyes), “+++”. For the same molecule, the Signal/noise ratio entry in series [6] is given as “+++”. For the same molecule, in [7], the concentration in solution (solubility) came to 100 mM (≈ 10.8 mg/mL). Besides, the “compatibility with RNA in situ hybridization assay” value in [9] is “compatible”. Besides, the “target detection with ATTO dye label probes after p-benzoquinone treatment” value in series [12] (ATTO 550 (UBC), ATTO 647N (POLR2A)) was “did not lead to successful detection”. The “target detection with Dylight label probes after p-benzoquinone treatment” value in [12] (Dylight 550 (UBC), Dylight 650 (POLR2A)) is given as “successfully detected”. Also, the “compatibility of autofluorescence quenching treatment with immunofluorescence” value in series [13] is reported as “compatible with immunofluorescence assays”.

The term solubility denotes the dissolved amount per volume that the medium holds.
